# Experimental data published in patent publication US7671038B1, “Method of therapeautic treatments including human immunodeficiency virus (HIV) disease and other conditions in a human host by administering adenine nucleotides” (priority 1993, dated 2010).
# “Also recorded” adds a separate entry of the source.
# Assays:
# [1] = system: tumor-bearing murine models; details: cited from earlier work
# [2] = Phase I continuous intravenous ATP infusions in advanced cancer patients: total blood (red blood cell) ATP levels and adverse effects; assay type: in vivo, human; details: after 48 hours of infusion
# Source text: In advanced cancer patients with cachexia and malnutrition, the basal blood ATP levels were lower than normal but could be elevated to well above a normal level after ATP infusions.
# [3] = cited from earlier work
# TNF-α production = details: cited from earlier work; for TNF-α biosynthesis inhibition: conclusion of Parmely et al.
# endotoxin lethality = details: mice; cited from earlier work
# T-cells = details: HIV seropositive individuals (without AIDS); cited from earlier work
# [4] = activated mouse peritoneal macrophages
structure (smiles),measurement,setting,value
"Nc1ncnc2c1ncn2[C@@H]1O[C@H](COP(=O)(O)OP(=O)(O)OP(=O)(O)O)[C@@H](O)[C@H]1O [ATP, adenosine 5′triphosphate]",host weight loss,"[1]; cachectic tumor model, murine hosts",markedly inhibit
same,tumor growth,"[1]; elevated ATP levels, tumor-bearing murine models",inhibit
same,change of total blood levels of ATP (red blood cell ATP pools),[2]; most patients,doubling
same,total blood ATP levels,[2]; basal levels 0.9-1 mM,1.6 to 2 mM
same,change of blood (red blood cell) ATP levels,"[3]; intravenous infusion 50 μg/kg min, after 24 hours, advanced cancer patients",doubling
same,decline of elevated blood ATP levels after termination of the ATP infusions,[3]; return of total blood ATP to basal levels,declined over a period of several days; also recorded: declined within several days
"Nc1ncnc2c1ncn2[C@H]1CC[C@@H](O)C1 [MDL201112, reference compound]",TNF-α biosynthesis inhibition,TNF-α production,potent inhibitors
Nc1ncnc2c1ncn2[C@@H]1O[C@H](CO)[C@@H](O)[C@H]1O [adenosine],RNA levels for TNF-α,TNF-α production; [4],no effect
same,TNF-α production,TNF-α production; [4],inhibited
same,TNF-α biosynthesis inhibition,TNF-α production,potent inhibitors
same,protection against endotoxin lethality,endotoxin lethality,failed to protect
"C[C@H]1O[C@@H](n2cnc3c(N)ncnc32)C[C@@H]1O [ddAdo, 2′,5′-dideoxyadenosine]",cyclic AMP levels,T-cells,reduce
same,proliferative capacity of T-cells to recall antigens and T-cell cytotoxicity,T-cells,increase
